# According to patent US20210052358A1, “TEETH WHITENING PRODUCT CONTAINING PIEZOELECTRIC MATERIAL” (Nanjing University of Science & Technology, priority 2019, published 2021):
# Like-named read-outs stand apart in the source and are kept apart here.
# Tests used:
# [1] = tested on: rat thoracic aortic smooth muscle cells; format: cell-based; conditions: added to culture medium; final concentration: barium titanate 1 mg/mL, H2O2 15% (FIG. 6)
# Description: A biological toxicity testing was conducted on barium titanate powders using rat thoracic aortic smooth muscle cells. Different additives were charged into cell culture media. After culture for a period of time, biological statistics was conducted. FIG. 6(a) illustrates a cell count in a standard medium as a function of cell culture time; FIGS. 6(b) and 6(c) illustrate results after addition of barium titanate powders (final concentration: 1 mg/mL) and 30% H2O2 (final concentration: 15%) in a culture medium, respectively; FIG. 6(d) illustrates mathematical statistics of results of every day.
# [2] = after whitening for the same time period, SEM (FIG. 7)
smiles,measurement,setting,value
"OO [H2O2, hydrogen peroxide]",effect on cell growth and proliferation (cell count versus culture time),[1],almost all cells in the medium die
same,damage to the tooth surface / enamel,[2],damages the tooth surface seriously
same,damage to the tooth surface / enamel,[2]; listed as 30% H2O2,causes non-ignorable damage to the enamel on the tooth surface
